Laboratory results as given in PubChem BioAssay AID2060503 (Molecular Pharmacology Branch, DTP, NCI, 2025).

Test system: 817829-284-R-J1-PDC complex spheroids, viability
Test: Anticancer human tumor 817829-284-R-J1-PDC patient-derived colon adenocarcinoma cell line growth inhibition [GQUAD]
Settings: for IC50: curve of first compound; for viability, T/C: stronger effect = lower value
Outline: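 Tumor cells were grown as complex spheroids with HUVEC endothelial cells and mesenchymal stem cells as stroma. G-quadruplex stabilizers were combined with targeted agents over half-log dilutions from near the clinical Cmax, or from 10 microM.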

[1] = second compound 0.0316 µM, first compound 0.0316 µM
[2] = second compound 0.0316 µM, first compound 0.1 µM
[3] = second compound 0.0316 µM, first compound 0.316 µM
[4] = second compound 0.0316 µM, first compound 1 µM
[5] = second compound 0.0316 µM, first compound 3.16 µM
[6] = second compound 0.0316 µM, first compound 10 µM
[7] = second compound 0.1 µM, first compound 0.0316 µM
[8] = second compound 0.1 µM, first compound 0.1 µM
[9] = second compound 0.1 µM, first compound 0.316 µM
[10] = second compound 0.1 µM, first compound 1 µM
[11] = second compound 0.1 µM, first compound 3.16 µM
[12] = second compound 0.1 µM, first compound 10 µM
[13] = second compound 0.316 µM, first compound 0.0316 µM
[14] = second compound 0.316 µM, first compound 0.1 µM
[15] = second compound 0.316 µM, first compound 0.316 µM
[16] = second compound 0.316 µM, first compound 1 µM
[17] = second compound 0.316 µM, first compound 3.16 µM
[18] = second compound 0.316 µM, first compound 10 µM
[19] = second compound 1 µM, first compound 0.0316 µM
[20] = second compound 1 µM, first compound 0.1 µM
[21] = second compound 1 µM, first compound 0.316 µM
[22] = second compound 1 µM, first compound 1 µM
[23] = second compound 1 µM, first compound 3.16 µM
[24] = second compound 1 µM, first compound 10 µM
[25] = second compound 3.16 µM, first compound 0.0316 µM
[26] = second compound 3.16 µM, first compound 0.1 µM
[27] = second compound 3.16 µM, first compound 0.316 µM
[28] = second compound 3.16 µM, first compound 1 µM
[29] = second compound 3.16 µM, first compound 3.16 µM
[30] = second compound 3.16 µM, first compound 10 µM
[31] = second compound 10 µM, first compound 0.0316 µM
[32] = second compound 10 µM, first compound 0.1 µM
[33] = second compound 10 µM, first compound 0.316 µM
[34] = second compound 10 µM, first compound 1 µM
[35] = second compound 10 µM, first compound 3.16 µM
[36] = second compound 10 µM, first compound 10 µM
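Further: spheroids exposed to agents for 7 days before readout.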
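Wherever viability, T/C is given: percent viability relative to DMSO vehicle control taken as 100%.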

Question: Which IC50 (second compound 0.0316 µM) does the source give for `C=CC(=O)N1CCN(c2nc(=O)n(-c3c(C)ccnc3C(C)C)c3nc(-c4c(O)cccc4F)c(F)cc23)C(C)C1` (stereo unspecified) + Cc1cnc(CNC(=O)c2c(=O)c3ccc(N4CCCN(C)CC4)nc3n3c2sc2ccccc23)cn1 here?
Answer: Its IC50 is 7980 nM.

Question: And the IC50 (second compound 0.1 µM)?
Answer: Its IC50 is < 31.6 nM.

Question: And the IC50 (second compound 0.316 µM)?
Answer: Its IC50 is < 31.6 nM.

Question: And the IC50 (second compound 1 µM)?
Answer: The IC50 was < 31.6 nM.

Question: What about the IC50 (second compound 3.16 µM) of the same molecule?
Answer: The IC50 was < 31.6 nM.

Question: What about the IC50 (second compound 10 µM) of the same molecule?
Answer: The IC50 was < 31.6 nM.

Question: And the viability, T/C [1]?
Answer: The viability, T/C was 87.4%.

Question: What about the viability, T/C [2] of the same molecule?
Answer: The viability, T/C was 59.1%.

Question: And the viability, T/C [3]?
Answer: The viability, T/C was 90.8%.

Question: What about the viability, T/C [4] of the same molecule?
Answer: The viability, T/C was 55.7%.

Question: And the viability, T/C [5]?
Answer: Its viability, T/C is 76.5%.

Question: And the viability, T/C [6]?
Answer: The viability, T/C was 44.3%.

Question: What about the viability, T/C [7] of the same molecule?
Answer: Its viability, T/C is 34.2%.

Question: And the viability, T/C [8]?
Answer: Its viability, T/C is 38.1%.

Question: And the viability, T/C [9]?
Answer: The viability, T/C was 30.2%.

Question: What about the viability, T/C [10] of the same molecule?
Answer: Its viability, T/C is 34.2%.

Question: And the viability, T/C [11]?
Answer: The viability, T/C was 29.9%.

Question: What about the viability, T/C [12] of the same molecule?
Answer: Its viability, T/C is 26.8%.

Question: What about the viability, T/C [13] of the same molecule?
Answer: The viability, T/C was 26.6%.

Question: And the viability, T/C [14]?
Answer: Its viability, T/C is 28.8%.

Question: And the viability, T/C [15]?
Answer: Its viability, T/C is 28.4%.

Question: And the viability, T/C [16]?
Answer: Its viability, T/C is 24.9%.

Question: What about the viability, T/C [17] of the same molecule?
Answer: Its viability, T/C is 29.5%.

Question: And the viability, T/C [18]?
Answer: The viability, T/C was 20.5%.

Question: And the viability, T/C [19]?
Answer: The viability, T/C was 18.8%.

Question: What about the viability, T/C [20] of the same molecule?
Answer: The viability, T/C was 27.1%.

Question: And the viability, T/C [21]?
Answer: The viability, T/C was 22.6%.

Question: And the viability, T/C [22]?
Answer: The viability, T/C was 21.1%.

Question: And the viability, T/C [23]?
Answer: Its viability, T/C is 24.3%.

Question: And the viability, T/C [24]?
Answer: The viability, T/C was 19.6%.

Question: And the viability, T/C [25]?
Answer: The viability, T/C was 21.8%.

Question: And the viability, T/C [26]?
Answer: Its viability, T/C is 21.3%.

Question: And the viability, T/C [27]?
Answer: The viability, T/C was 22.5%.

Question: What about the viability, T/C [28] of the same molecule?
Answer: The viability, T/C was 19.1%.

Question: What about the viability, T/C [29] of the same molecule?
Answer: The viability, T/C was 16.7%.

Question: And the viability, T/C [30]?
Answer: The viability, T/C was 16.9%.

Question: What about the viability, T/C [31] of the same molecule?
Answer: Its viability, T/C is 0.19%.

Question: What about the viability, T/C [32] of the same molecule?
Answer: Its viability, T/C is 0.21%.

Question: What about the viability, T/C [33] of the same molecule?
Answer: Its viability, T/C is 0.19%.

Question: And the viability, T/C [34]?
Answer: The viability, T/C was 0.19%.

Question: And the viability, T/C [35]?
Answer: The viability, T/C was 0.2%.

Question: What about the viability, T/C [36] of the same molecule?
Answer: Its viability, T/C is 0.19%.

Question: Which results are given for `CC1COCCN1c1cc(C2(O)CC3CCC(C2)O3)c2cnn(-c3ccn[nH]3)c2n1` (stereo unspecified) + Cc1cnc(CNC(=O)c2c(=O)c3ccc(N4CCCN(C)CC4)nc3n3c2sc2ccccc23)cn1?
Answer: IC50 (second compound 0.0316 µM): < 31.6 nM; IC50 (second compound 0.1 µM): < 31.6 nM; IC50 (second compound 0.316 µM): < 31.6 nM; IC50 (second compound 1 µM): < 31.6 nM; IC50 (second compound 3.16 µM): < 31.6 nM; IC50 (second compound 10 µM): < 31.6 nM; viability, T/C [1]: 12.8%; viability, T/C [2]: 9.62%; viability, T/C [3]: 7.9%; viability, T/C [4]: 5.56%; viability, T/C [5]: 5.19%; viability, T/C [6]: 3.22%; viability, T/C [7]: 12.9%; viability, T/C [8]: 10.7%; viability, T/C [9]: 8.05%; viability, T/C [10]: 5.97%; viability, T/C [11]: 4.94%; viability, T/C [12]: 2.88%; viability, T/C [13]: 13.1%; viability, T/C [14]: 9.42%; viability, T/C [15]: 6.75%; viability, T/C [16]: 6.83%; viability, T/C [17]: 4.09%; viability, T/C [18]: 2.08%; viability, T/C [19]: 12.2%; viability, T/C [20]: 11.2%; viability, T/C [21]: 6.62%; viability, T/C [22]: 5.07%; viability, T/C [23]: 3.93%; viability, T/C [24]: 1.59%; viability, T/C [25]: 12.6%; viability, T/C [26]: 9.23%; viability, T/C [27]: 6.99%; viability, T/C [28]: 3.25%; viability, T/C [29]: 0.81%; viability, T/C [30]: 0.2%; viability, T/C [31]: 0.05%; viability, T/C [32]: 0.1%; viability, T/C [33]: 0.14%; viability, T/C [34]: 0.08%; viability, T/C [35]: 0.14%; viability, T/C [36]: 0.12%

Question: How did the IC50 (second compound 0.0316 µM) turn out when `CC1COCCN1c1cc(C2(S(C)(=N)=O)CC2)nc(-c2ccnc3[nH]ccc23)n1` (stereo unspecified) + Cc1cnc(CNC(=O)c2c(=O)c3ccc(N4CCCN(C)CC4)nc3n3c2sc2ccccc23)cn1 was run?
Answer: The IC50 was 200 nM.

Question: What about the IC50 (second compound 0.1 µM) of the same molecule?
Answer: The IC50 was < 31.6 nM.

Question: And the IC50 (second compound 0.316 µM)?
Answer: The IC50 was < 31.6 nM.

Question: And the IC50 (second compound 1 µM)?
Answer: The IC50 was < 31.6 nM.

Question: And the IC50 (second compound 3.16 µM)?
Answer: Its IC50 is < 31.6 nM.

Question: And the IC50 (second compound 10 µM)?
Answer: The IC50 was < 31.6 nM.

Question: What about the viability, T/C [1] of the same molecule?
Answer: The viability, T/C was 82.8%.

Question: And the viability, T/C [2]?
Answer: Its viability, T/C is 71.1%.

Question: What about the viability, T/C [3] of the same molecule?
Answer: The viability, T/C was 36.1%.

Question: And the viability, T/C [4]?
Answer: Its viability, T/C is 15.2%.

Question: What about the viability, T/C [5] of the same molecule?
Answer: Its viability, T/C is 12.5%.

Question: And the viability, T/C [6]?
Answer: The viability, T/C was 10.4%.

Question: What about the viability, T/C [7] of the same molecule?
Answer: Its viability, T/C is 47.3%.

Question: What about the viability, T/C [8] of the same molecule?
Answer: The viability, T/C was 37.9%.

Question: What about the viability, T/C [9] of the same molecule?
Answer: Its viability, T/C is 24.1%.

Question: And the viability, T/C [10]?
Answer: Its viability, T/C is 14.4%.

Question: What about the viability, T/C [11] of the same molecule?
Answer: The viability, T/C was 11.4%.

Question: What about the viability, T/C [12] of the same molecule?
Answer: Its viability, T/C is 8.15%.

Question: What about the viability, T/C [13] of the same molecule?
Answer: Its viability, T/C is 29.1%.

Question: What about the viability, T/C [14] of the same molecule?
Answer: Its viability, T/C is 29.6%.

Question: What about the viability, T/C [15] of the same molecule?
Answer: The viability, T/C was 22.2%.

Question: What about the viability, T/C [16] of the same molecule?
Answer: Its viability, T/C is 16.5%.

Question: What about the viability, T/C [17] of the same molecule?
Answer: Its viability, T/C is 12.6%.

Question: And the viability, T/C [18]?
Answer: Its viability, T/C is 9.19%.

Question: And the viability, T/C [19]?
Answer: The viability, T/C was 29.2%.

Question: What about the viability, T/C [20] of the same molecule?
Answer: The viability, T/C was 27.2%.

Question: And the viability, T/C [21]?
Answer: Its viability, T/C is 21.3%.

Question: What about the viability, T/C [22] of the same molecule?
Answer: The viability, T/C was 17.1%.

Question: What about the viability, T/C [23] of the same molecule?
Answer: Its viability, T/C is 10.8%.

Question: What about the viability, T/C [24] of the same molecule?
Answer: Its viability, T/C is 8.91%.

Question: And the viability, T/C [25]?
Answer: Its viability, T/C is 21.5%.

Question: And the viability, T/C [26]?
Answer: The viability, T/C was 23.8%.

Question: And the viability, T/C [27]?
Answer: The viability, T/C was 22.3%.

Question: What about the viability, T/C [28] of the same molecule?
Answer: The viability, T/C was 15.2%.

Question: And the viability, T/C [29]?
Answer: The viability, T/C was 12.8%.

Question: And the viability, T/C [30]?
Answer: Its viability, T/C is 8.2%.

Question: And the viability, T/C [31]?
Answer: Its viability, T/C is 0.17%.

Question: What about the viability, T/C [32] of the same molecule?
Answer: The viability, T/C was 0.16%.

Question: And the viability, T/C [33]?
Answer: Its viability, T/C is 0.21%.

Question: And the viability, T/C [34]?
Answer: The viability, T/C was 0.24%.

Question: What about the viability, T/C [35] of the same molecule?
Answer: The viability, T/C was 0.23%.

Question: And the viability, T/C [36]?
Answer: The viability, T/C was 0.24%.
